Structures can show the parent of a compound that is named as a salt.
What was measured:
[1] = Fixing effect: HS-GC (II), analysis of volatilized portion after standing 15 minutes; type: physicochemical; details: controlling agent 15%, model perfume 5%
Procedure: (§1) Then, the fixing effect was evaluated by a second head space gas chromatographic (II) method (HS-GC (II)). Specifically, a perfume containing 0.7 g of a perfume controlling agent was coated on a sheet of paper having a predetermined thickness, area (11.5 × 7.5 cm), and weight (about 2.9 g). The coated paper was allowed to stand for 15 minutes in an open space in a room (6 × 4 × 2.5 m) maintained at a humidity of 50% at a ventilation rate of 1,500 m^3 /hr. The paper was then transferred into a 1,000 ml Erlenmeyer flask, and the flask was tightly sealed. After a lapse of 15 minutes, the volatilized portion was collected and analyzed by gas chromatography under the conditions shown Table A above. Furthermore, the residue on the paper was extracted with acetone, and analyzed by gas chromatography using conditions shown in Table B below.
(§2) The composition of the model perfume used was as follows:
Model Perfume: 5% by weight
95% Ethanol: 95% by weight
The composition of the perfume containing a perfume controlling agent was as follows:
Perfume Controlling Agent: 15% by weight
95% Ethanol: 80% by weight

[2] = Fixing effect: analysis of residue on paper after standing 15 minutes; type: physicochemical
Procedure: as §1
Column: 5% FFAP (free fatty acid polyester; a trade name for a product of Nippon Chromato Co., Ltd.) on diatomaceous earth (2m)
Column Temperature: 80° C (5 minutes, isothermal) to 220° C (4° C/min.)
Injector Temperature: 260° C
Detector Temperature: 260° C
Detector: Flame Ionization Detector
Carrier Gas: He (40 ml/min.)
as §2
The values shown in Table 5 above were obtained by calculating the areas of the perfumes while the area of musk ketone measured by gas chromatography was taken as 1. (This calculating procedure was adopted because musk ketone has a high boiling point, and scarcely volatilizes at 30° C.)

[3] = Acute oral toxicity (LD50); details: for LD50: acute oral toxicity
[4] = system: Pseudomonas aeruginosa; assay: Microorganism assimilation; details: for OD (turbidity): 660 nm; for Assimilation by microorganism: conclusion from Table 8
Procedure: 100 ml of the above liquid medium was placed in a 500 ml Sakaguchi flask, and sterilized at 120° C for 15 minutes in an autoclave in a customary manner. After cooling, the culture medium was inoculated with a prescribed amount of a suspension of the pre-cultured microorganism and cultivated at 30° C with shaking 120 times per minute.
Changes with time in the pH, turbidity, number of living cells were determined.
The turbidity was determined as follows: 2 ml of the culture broth was collected, and the precipitate was separated with a centrifugal separator. The precipitate was washed with acetone, and suspended in 2 ml of distilled water. The turbidity (OD) of the suspension at 660 nm was measured.

[5] = Stabilizing effect on octanal (APHA color); type: physicochemical; details: 37° C, 1 month; original APHA 15; 50% controlling agent added or octanal alone
Procedure: Octanal was selected as a single perfume, and the stabilizing effect of the perfume controlling agent was determined.
Amount of Perfume Controlling Agent: 50% based on the octanal (in the case of both DIBA and DIAA)
Test Temperature and Period: 37° C, one month (checked every week)
Items Evaluated: Acid value (AV), carbonyl value (COV), APHA color
In the test, a 100 ml brown bottle boiled in water for 12 hours was used, and the head space of the bottle was purged with nitrogen gas after the octanal had been introduced into the bottle.
Specifically, the color of a solution obtained by diluting 1 ml of a standard original color liquid (octanal) with water exactly to a volume of 100 ml is taken as APHA No. 5, and the APHA color number is increased by a multiple of 5 (as 10, 15, 20 . . . ) for every 1 ml increase of the original liquid.

[6] = system: skin of a guinea pig; assay: Cumulative irritation on the skin of a guinea pig; type: in vivo; details: 0.3 ml three times at 24 hour intervals, intact skin
Procedure: The cumulative irritation on the skin of a guinea pig was evaluated by coating 0.3 ml of a test agent on intact skin of the guinea pig and judging the skin reaction after a lapse of 24 hours, then coating the test agent in an amount of 0.3 ml on the same site twice, each at 24 hour intervals, and judging the reaction of the skin after a lapse of 72 hours (after coating three times).

[7] = system: skin of an albino rabbit; assay: Primary irritation of the skin of an albino rabbit; type: in vivo; details: 0.3 ml, intact and abraded area, 24 hours
Procedure: The primary irritation of the skin of an albino rabbit was determined by adhering 0.3 ml of a test agent on a lint cloth patch, applying the cloth to an intact area and an abraded area of the skin of the back of the albino rabbit, and evaluating the skin reactions at these two areas after a lapse of 24 hours. Then, an overall evaluation was made.

[8] = Linalyl Acetate (not present: 39.0%)
[9] = Musk ketone (not present: 0.0%)
[10] = Citral (not present: 1.5), area of musk ketone taken as 1
[11] = Limonene (not present: 0.3), area of musk ketone taken as 1
[12] = Linalool (not present: 6.4), area of musk ketone taken as 1
[13] = Linalyl Acetate (not present: 5.1), area of musk ketone taken as 1
[14] = Musk Ketone (reference, taken as 1; not present: 1.0)
[15] = Pinene (not present: 0.0), area of musk ketone taken as 1

Row | Molecule | Analysis of Volatilized Portion after Standing 15 Minutes (HS-GC (II) Method) ([1]; Citral (not present: 3.5%)) | Analysis of Volatilized Portion after Standing 15 Minutes (HS-GC (II) Method) ([1]; Limonene (not present: 2.6%)) | Analysis of Volatilized Portion after Standing 15 Minutes (HS-GC (II) Method) ([1]; Linalool (not present: 45.2%)) | Analysis of Volatilized Portion after Standing 15 Minutes (HS-GC (II) Method) [1, 8] | Analysis of Volatilized Portion after Standing 15 Minutes (HS-GC (II) Method) [1, 9] | Analysis of Volatilized Portion after Standing 15 Minutes (HS-GC (II) Method) ([1]; Pinene (not present: 0.2%)) | LD50 [3] | pH ([4]; 0 days elapsed) | Number of Living Cells ([4]; 2 days elapsed) | pH ([4]; 2 days elapsed) | OD (turbidity) ([4]; 2 days elapsed) | Number of Living Cells ([4]; 7 days elapsed) | pH ([4]; 7 days elapsed) | OD (turbidity) ([4]; 7 days elapsed) | Number of Living Cells ([4]; 14 days elapsed) | pH ([4]; 14 days elapsed) | OD (turbidity) ([4]; 14 days elapsed) | Assimilation by microorganism [4] | further results
1 | O=C(OCc1ccccc1)c1ccccc1 [Benzyl Benzoate, benzyl benzoate] | 1.6% | 31.3% | 37.7% | 20.6% | 0.0% | 1.3% | – | – | – | – | – | – | – | – | – | – | – | – | Analysis of Residue on Paper after Standing 15 Minutes (Area Ratio) [2, 10]: 1.8; Analysis of Residue on Paper after Standing 15 Minutes (Area Ratio) [2, 11]: 0.38; Analysis of Residue on Paper after Standing 15 Minutes (Area Ratio) [2, 12]: 8.1; Analysis of Residue on Paper after Standing 15 Minutes (Area Ratio) [2, 13]: 8; Analysis of Residue on Paper after Standing 15 Minutes (Area Ratio) [2, 14]: 1; Analysis of Residue on Paper after Standing 15 Minutes (Area Ratio) [2, 15]: 0
2 | CC(O)CO (centres unmarked) [Propylene Glycol] | – | – | – | – | – | – | 23.9 mL/kg | – | – | – | – | – | – | – | – | – | – | – | –
3 | CCOC(=O)CC(O)(CC(=O)OCC)C(=O)OCC [Triethyl Citrate] | – | – | – | – | – | – | > 25 mL/kg | – | – | – | – | – | – | – | – | – | – | – | –
4 | CC(C)OC(=O)CCCCC(=O)OC(C)C [Diisopropyl Adipate, diisopropyl adipate] | – | – | – | – | – | – | – | 6.90 | 4.0 × 10^5 | 6.90 | 0.005 | 1.9 × 10^7 | 5.32 | 0.26 | < 10^3 | 4.22 | 0.46 | assimilated very well | –
5 | CCCCCCCC=O [octanal] | – | – | – | – | – | – | – | – | – | – | – | – | – | – | – | – | – | – | APHA color of octanal [5]: > 300 APHA
6 | dipropylene glycol | 3.7% | 2.7% | 42.8% | 40.0% | 0.0% | 0.2% | 17.6 mL/kg | 6.84 | 3.1 × 10^6 | 6.84 | 0 | 7.2 × 10^7 | 6.82 | 0.005 | 4.7 × 10^6 | 6.82 | 0 | not assimilated | Analysis of Residue on Paper after Standing 15 Minutes (Area Ratio) [2, 10]: 1.1; Analysis of Residue on Paper after Standing 15 Minutes (Area Ratio) [2, 11]: 0; Analysis of Residue on Paper after Standing 15 Minutes (Area Ratio) [2, 12]: 4.9; Analysis of Residue on Paper after Standing 15 Minutes (Area Ratio) [2, 13]: 4.1; Analysis of Residue on Paper after Standing 15 Minutes (Area Ratio) [2, 14]: 1; Analysis of Residue on Paper after Standing 15 Minutes (Area Ratio) [2, 15]: 0
7 | CCCCCCCCCCCCCC(=O)OC(C)C [Isopropyl Myristate] | – | – | – | – | – | – | > 25 mL/kg | – | – | – | – | – | – | – | – | – | – | – | –
8 | CCCCC(CC)COC(=O)CCCCC(=O)OCC(CC)CCCC (centres unmarked) [Di-2-ethylhexyl Adipate, di-2-ethylhexyl adipate] | – | – | – | – | – | – | – | 6.86 | 1.3 × 10^6 | 6.60 | 0.008 | 5.0 × 10^7 | 6.30 | 0.01 | 1.4 × 10^9 | 6.10 | 0.15 | gradually assimilated as time passed | –
9 | CCOC(=O)c1ccccc1C(=O)OCC [Diethyl Phthalate, diethyl phthalate] | 1.2% | 31.3% | 40.5% | 18.4% | 0.0% | 0.9% | – | 6.86 | 2.5 × 10^6 | 6.86 | 0.001 | 4.2 × 10^4 | 6.86 | 0.001 | 5.2 × 10^5 | 6.86 | 0 | not assimilated | –
10 | CC(C)CCOC(=O)CCCCC(=O)OCCC(C)C (single isomer, unassigned) [DIAA, diisoamyl adipate] | – | – | – | – | – | – | > 25 mL/kg | 6.90 | 1.6 × 10^6 | 4.74 | 0.105 | < 10^2 | 4.40 | 0.05 | < 10^2 | 4.30 | 0.055 | assimilated very well | Acute toxicity compared with conventional perfume controlling agents ([3]; conclusion from Table 1): equal to, or lower than, other conventional perfume controlling agents; Cumulative irritation on the skin [6]: did not exhibit irritating effects; Primary irritation of the skin [7]: did not exhibit irritating effects; APHA color of octanal [5]: about 30 APHA
